The source of these data is ChEMBL document CHEMBL1145758, “In vivo characterization of A-192411: a novel fungicidal lipopeptide (II)” (2003).

The structures appear in SMILES notation. ≈ marks a conversion by molar mass, not a printed value. Starred links: 1 amine or outer side, 2 acyl side, 3 side chain; linkers in the order of their positions; H or OH if unused. Positions of bridges follow the written chain, without caps; N, C: chain ends. Non-standard residues stand in square brackets, D forms with d. Residues, ends and D or L forms follow the SMILES beside them. *: point of attachment. pTerphenylCO(4''-OnC5H11) = CCCCCOc1ccc(-c2ccc(-c3ccc(C(=O)*)cc3)cc2)cc1; X1 = NCC(=O)Nc1cc(CC[C@H](N[*:1])C(=O)[*:2])ccc1O; X2 = NC(N)=N[C@H]1CC(C(=O)[*:2])N([*:1])C1; Hyp = O=C(O)[C@@H]1C[C@@H](O)CN1; Orn = NCCC[C@H](N)C(=O)O

Common to all, as to type: functional
In one experiment the test system is Aspergillus fumigatus. Put plainly: Minimum inhibitory concentration against Aspergillus fumigatus.
Experiment [1] relates to Candida albicans. In words: Minimum inhibitory concentration against 41 strains of C. albicans; Range is 0.25-1.0 ug/mL.
The subject of experiment [2] is Candida albicans. Put plainly: Minimum inhibitory concentration against Candida albicans (CAF2).
Another experiment is filed under the species Mus musculus. Put plainly: Minimum inhibitory concentration against Candida albicans (CCH442) tested in mice.
For a further experiment, the species on record is Rattus norvegicus. In words: Minimum inhibitory concentration against Candida albicans (CCH442) tested in rats.

Turning to `CCCCCOc1ccc(-c2ccc(-c3ccc(C(=O)N[C@H]4CCCNC(=O)C5C[C@H](N=C(N)N)CN5C(=O)[C@H]([C@@H](C)O)NC(=O)[C@H](CCc5ccc(O)c(NC(=O)CN)c5)NC(=O)[C@@H]5C[C@@H](O)CN5C(=O)[C@H]([C@@H](C)O)NC4=O)cc3)cc2)cc1` (stereo not given in full) ({pTerphenylCO(4''-OnC5H11)}-[Orn]T[Hyp][X1]T[X2]; lactam 1-C), the MIC against Aspergillus fumigatus was > 100 µg/mL; in the experiment with Candida albicans [1], 0.25 µg/mL (≈ 0.213 µM); against Candida albicans [2] it was 0.25 µg/mL (≈ 0.213 µM); in the experiment listed under Mus musculus it was 0.5 µg/mL (≈ 0.425 µM); in the experiment filed under Rattus norvegicus, 0.5 µg/mL (≈ 0.425 µM).
For `C[C@@H]1[C@H](O)[C@@H](C)/C=C/C=C/C=C/C=C/C=C/C=C/C=C/[C@H](O[C@@H]2O[C@H](C)[C@@H](O)[C@H](N)[C@@H]2O)C[C@@H]2O[C@](O)(C[C@@H](O)C[C@@H](O)[C@H](O)CC[C@@H](O)C[C@@H](O)CC(=O)O[C@H]1C)C[C@H](O)[C@H]2C(=O)O` [AMPHOTERICIN B], the MIC against Aspergillus fumigatus is 0.78 µg/mL (≈ 0.844 µM); in the experiment on Candida albicans [2], 0.5 µg/mL (≈ 0.541 µM); in the experiment filed under Mus musculus, 1 µg/mL (≈ 1.08 µM); in the experiment listed under Rattus norvegicus, 1 µg/mL (≈ 1.08 µM).
In the experiment listed under Rattus norvegicus, `OC(Cn1cncn1)(Cn1cncn1)c1ccc(F)cc1F` [FLUCONAZOLE] returned an MIC of 0.19 µg/mL (≈ 0.62 µM).

As usually defined, the MIC is the smallest concentration in the dilution series that meets the test's criterion for growth inhibition.
